In US20250381306A1, “COMPOSITIONS AND METHODS FOR TREATING DIABETIC CARDIOMYOPATHY” (UNIVERSITY OF UTAH RESEARCH FOUNDATION, priority 2022, published 2025):

System: cardiomyocytes
Test: Adult primary cardiomyocyte glucose uptake test
Format: cell-based, mouse
Settings: db/db cardiomyocytes, 10 nM insulin, metformin (20 µM) positive control
Experimental: Adult mouse cardiomyocytes were isolated from both male and female mice with collagenase II (2 mg/mL, Worthington Biochemical Corporation). Freshly isolated cardiomyocytes were seeded in laminin-precoated culture dishes and cultured in perfusion buffer (120.4 mM NaCl, 14.7 mM KCl, 0.6 mM KH2PO4, 0.6 mM Na2HPO4, 1.2 mM MgSO4×7H2O, 10 mM Hepes, 4.6 mM NaHCO3, 30 mM taurine, and 5.5 mM glucose) for 1 hour in 37° C. and 5% CO2 incubator prior to further experiments.
For glucose uptake assays, freshly isolated CMCs were seeded and cultured in laminin-precoated 96-well plates for 1 hour prior to the test. Cells were then washed twice with glucose-free perfusion buffer (120.4 mM NaCl, 14.7 mM KCl, 0.6 mM KH2PO4, 0.6 mM Na2HPO4, 1.2 mM MgSO4: 7H2O, 10 mM HEPES) and starved in starvation buffer (glucose-free perfusion buffer containing 1 mM pyruvate, 0.1% BSA) for 40 min. Metformin (0, 20 μM) was loaded together with starvation buffer in the indicated groups. Cells were then stimulated in the absence or presence of insulin (0, 10 nM) (Sigma-Aldrich) for 20 min. Following the manufacturer's instructions, 2 DG-glucose uptake test in CMCs was then determined by Glucose Uptake Assay kit (Abcam) and quantified with a FlexStation 3 plate reader (Molecular Devices).

## CN(C)C(=N)N=C(N)N [metformin]
  insulin-stimulated uptake of 2-Deoxy-D-glucose: rescue
